Experimental data as given in paper PMC5797729, “Structure/Function Studies of the α4 Subunit Reveal Evolutionary Loss of a GlyR Subtype Involved in Startle and Escape Responses” (Frontiers in Molecular Neuroscience, 2018).

Experiments:
Human α4^K59E/C204Y + α1 = test system: T1, Human α4^K59E/C204Y + α1; details: agonist; -40 mV; pH 7.4; 22 °C
T1 construct: gene GLRA1
Description: whole-cell patch clamp, Hill fit on Human α4^K59E/C204Y + α1

Mouse α4 GlyR = molecular target: T2, Mouse α4 GlyR (Mus musculus, UniProt Q61603); experiment: whole-cell patch clamp, Hill fit; assay type: cell-based
T2 construct: gene Glra4; full-length wild-type cDNA from whole brain in pRK5, homomeric pentamer, HEK293 cells
T2 sequence (Q61603 28-456): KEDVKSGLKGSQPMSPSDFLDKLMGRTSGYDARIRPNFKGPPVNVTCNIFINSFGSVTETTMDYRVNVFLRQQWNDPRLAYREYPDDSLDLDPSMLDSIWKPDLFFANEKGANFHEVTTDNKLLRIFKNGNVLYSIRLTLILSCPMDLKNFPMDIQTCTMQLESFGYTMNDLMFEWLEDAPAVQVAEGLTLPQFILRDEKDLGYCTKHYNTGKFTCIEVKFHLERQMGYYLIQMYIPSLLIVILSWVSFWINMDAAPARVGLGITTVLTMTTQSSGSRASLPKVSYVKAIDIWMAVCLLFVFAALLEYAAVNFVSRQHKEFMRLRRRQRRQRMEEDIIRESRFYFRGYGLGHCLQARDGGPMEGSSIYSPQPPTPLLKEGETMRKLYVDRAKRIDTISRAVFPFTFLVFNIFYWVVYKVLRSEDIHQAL
Description: whole-cell patch clamp, Hill fit on Mouse α4 GlyR

Gorilla α4 GlyR = molecular target: T3, Gorilla α4 GlyR (Gorilla gorilla, UniProt G3RDJ8); experiment: whole-cell patch clamp, Hill fit; assay type: cell-based
T3 construct: gene GLRA4; full-length synthetic predicted cDNA in pRK5, homomeric pentamer, HEK293 cells
T3 sequence (G3RDJ8 29-457): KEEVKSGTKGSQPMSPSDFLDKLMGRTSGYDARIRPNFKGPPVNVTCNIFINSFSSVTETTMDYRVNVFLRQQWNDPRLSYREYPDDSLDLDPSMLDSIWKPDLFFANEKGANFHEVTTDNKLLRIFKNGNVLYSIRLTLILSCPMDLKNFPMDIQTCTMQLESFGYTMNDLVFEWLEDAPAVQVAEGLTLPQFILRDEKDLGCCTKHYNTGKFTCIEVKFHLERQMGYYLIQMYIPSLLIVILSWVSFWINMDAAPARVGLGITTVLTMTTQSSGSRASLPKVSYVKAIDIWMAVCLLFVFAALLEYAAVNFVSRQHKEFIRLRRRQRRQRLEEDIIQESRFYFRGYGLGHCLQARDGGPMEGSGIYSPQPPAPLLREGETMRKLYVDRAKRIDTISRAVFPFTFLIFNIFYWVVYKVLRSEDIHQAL
Description: whole-cell patch clamp, Hill fit on Gorilla α4 GlyR

- EC50 (Human α4^K59E/C204Y + α1): 350 ± 29 µM
- EC50 (Mouse α4 GlyR): 61 ± 10 µM
- EC50 (Gorilla α4 GlyR): 86 ± 16 µM
Compound: NCC(=O)O [glycine]
